PubChem BioAssay AID248 (DTP/NCI, 2004)
Toxic doses and inconclusive results are not listed. Rule as the data show it: active = T/C of 150% or more; inactive = T/C below 125%.

System: L1210 leukemia ip in BDF1 mice, survival T/C
Assay: NCI In Vivo Anticancer Drug Screen. Data for tumor model L1210 Leukemia (intraperitoneal) in B6D2F1 (BDF1) mice
Details: endpoint: mean survival time, higher = longer survival
How it was run: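 Ratio derived from survival: compound-dosed mice over vehicle-dosed mice, all bearing a transplantable tumor.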

[1] = dose: 100.0 mg/kg/injection, schedule: Q04DX002 (ip), vehicle: Klucel (hydroxypropylcellulose) (HPC)
[2] = dose: 200.0 mg/kg/injection, schedule: Q04DX002 (ip), vehicle: Klucel (hydroxypropylcellulose) (HPC)
[3] = dose: 400.0 mg/kg/injection, schedule: Q04DX002 (ip), vehicle: Klucel (hydroxypropylcellulose) (HPC)
[4] = dose: 100.0 mg/kg/injection, schedule: Q01DX001 (ip), vehicle: saline with Tween-80
[5] = dose: 200.0 mg/kg/injection, schedule: Q01DX001 (ip), vehicle: saline with Tween-80
[6] = dose: 400.0 mg/kg/injection, schedule: Q01DX001 (ip), vehicle: saline with Tween-80
[7] = dose: 100.0 mg/kg/injection, schedule: Q01DX001 (ip), vehicle: saline
[8] = dose: 200.0 mg/kg/injection, schedule: Q01DX001 (ip), vehicle: saline
[9] = dose: 400.0 mg/kg/injection, schedule: Q01DX001 (ip), vehicle: saline
[10] = dose: 100.0 mg/kg/injection, schedule: Q01DX009 (ip), vehicle: Klucel (hydroxypropylcellulose) (HPC)
[11] = dose: 200.0 mg/kg/injection, schedule: Q01DX009 (ip), vehicle: Klucel (hydroxypropylcellulose) (HPC)
[12] = dose: 400.0 mg/kg/injection, schedule: Q01DX009 (ip), vehicle: Klucel (hydroxypropylcellulose) (HPC)
[13] = dose: 100.0 mg/kg/injection, schedule: Q04DX003 (ip), vehicle: Klucel (hydroxypropylcellulose) (HPC)
[14] = dose: 200.0 mg/kg/injection, schedule: Q04DX003 (ip), vehicle: Klucel (hydroxypropylcellulose) (HPC)
[15] = dose: 400.0 mg/kg/injection, schedule: Q04DX003 (ip), vehicle: Klucel (hydroxypropylcellulose) (HPC)
[16] = dose: 50.0 mg/kg/injection, schedule: Q01DX009 (ip), vehicle: saline with Tween-80
[17] = dose: 100.0 mg/kg/injection, schedule: Q01DX009 (ip), vehicle: saline with Tween-80
[18] = dose: 200.0 mg/kg/injection, schedule: Q01DX009 (ip), vehicle: saline with Tween-80
[19] = dose: 100.0 mg/kg/injection, schedule: Q01DX001 (ip), vehicle: carboxymethylcellulose (CMC)
[20] = dose: 200.0 mg/kg/injection, schedule: Q01DX001 (ip), vehicle: carboxymethylcellulose (CMC)
[21] = dose: 400.0 mg/kg/injection, schedule: Q01DX001 (ip), vehicle: carboxymethylcellulose (CMC)

Measured: T/C

O=Nc1ccc(N(CCO)CCO)cc1
inactive: dose: 5.0 mg/kg/injection, schedule: Q01DX001 (ip), vehicle: saline 97 % of control | dose: 10.0 mg/kg/injection, schedule: Q01DX001 (ip), vehicle: saline 97 % of control | dose: 20.0 mg/kg/injection, schedule: Q01DX001 (ip), vehicle: saline 101 % of control | dose: 40.0 mg/kg/injection, schedule: Q01DX001 (ip), vehicle: saline 111 % of control

Cn1[nH]c(=O)c2ncccc2c1=O
inactive: [1] 97 % of control | dose: 100.0 mg/kg/injection, schedule: Q04DX002 (ip), vehicle: saline 94 % of control | [2] 97 % of control | dose: 200.0 mg/kg/injection, schedule: Q04DX002 (ip), vehicle: saline 94 % of control | dose: 400.0 mg/kg/injection, schedule: Q04DX002 (ip), vehicle: saline 97 % of control

CCCCCCCCCCC/C=N\N(C)C
inactive: [1] 96 % of control | [2] 92 % of control | [3] 103 % of control

Cc1ccc(OCC(N)=O)cc1
inactive: dose: 50.0 mg/kg/injection, schedule: Q04DX002 (ip), vehicle: Klucel (hydroxypropylcellulose) (HPC) 100 % of control | [1] 113 % of control | [2] 103 % of control

CCC(/C=C\C(C)C1CCC2C3CC=C4CC(OS(=O)(=O)c5ccc(C)cc5)CCC4(C)C3CCC12C)C(C)C (stereo not drawn)
inactive: [4] 90 % of control | [5] 90 % of control | [6] 86 % of control

O=C(O)c1[nH]c2c(=O)[nH]c(=O)[nH]c2c1Br
inactive: [7] 102 % of control | [8] 100 % of control | [9] 100 % of control

O=[N+]([O-])c1ccccc1S(=O)(=O)Nc1ccccc1F
inactive: [10] 105 % of control | [11] 100 % of control | [12] 101 % of control

CCC[N+](C)(C)CCCCOCCCC[N+](C)(C)CCC
inactive: dose: 3.12 mg/kg/injection, schedule: Q01DX009 (ip), vehicle: saline 104 % of control | dose: 6.25 mg/kg/injection, schedule: Q01DX009 (ip), vehicle: saline 92 % of control | dose: 12.5 mg/kg/injection, schedule: Q01DX009 (ip), vehicle: saline 103 % of control | dose: 12.5 mg/kg/injection, schedule: Q04DX003 (ip), vehicle: saline 95 % of control

Cc1ccc(S(=O)(=O)/C=C(/I)C(=O)c2ccccc2)cc1
inactive: [7] 95 % of control | [8] 93 % of control | [9] 95 % of control

O=C(N/C=C/NC(=O)c1ccccc1)c1ccccc1
inactive: dose: 100.0 mg/kg/injection, schedule: Q01DX001 (ip), vehicle: Klucel (hydroxypropylcellulose) (HPC) 104 % of control | dose: 200.0 mg/kg/injection, schedule: Q01DX001 (ip), vehicle: Klucel (hydroxypropylcellulose) (HPC) 111 % of control | dose: 400.0 mg/kg/injection, schedule: Q01DX001 (ip), vehicle: Klucel (hydroxypropylcellulose) (HPC) 104 % of control

Nc1nc(N)c(CCCOc2cccc(Cl)c2Cl)c(N)n1
inactive: dose: 87.5 mg/kg/injection, schedule: Q01DX009 (ip), vehicle: Klucel (hydroxypropylcellulose) (HPC) 95 % of control | dose: 175.0 mg/kg/injection, schedule: Q01DX009 (ip), vehicle: Klucel (hydroxypropylcellulose) (HPC) 88 % of control | dose: 350.0 mg/kg/injection, schedule: Q01DX009 (ip), vehicle: Klucel (hydroxypropylcellulose) (HPC) 106 % of control

C=CC(N)=O (tested in a mixture with another compound)
inactive: [7] 99 % of control | [8] 99 % of control | [9] 89 % of control

Nc1ccc(-c2ccc(N)c(Oc3ccccc3)c2)cc1Oc1ccccc1
inactive: dose: 100.0 mg/kg/injection, schedule: Q01DX001 (ip), vehicle: other 92 % of control | dose: 200.0 mg/kg/injection, schedule: Q01DX001 (ip), vehicle: other 97 % of control | dose: 400.0 mg/kg/injection, schedule: Q01DX001 (ip), vehicle: other 94 % of control

Cc1ccc(S(=O)(=O)Oc2ccc(I)cc2)cc1
inactive: [10] 107 % of control | [13] 100 % of control | [11] 98 % of control | [14] 105 % of control | [12] 103 % of control | [15] 97 % of control

c1ccc(N2CCN(c3ccccn3)CC2)nc1
inactive: [16] 92 % of control | [17] 99 % of control | [18] 89 % of control

CC(=O)CC(=O)Nc1cccnc1
inactive: [19] 100 % of control | [20] 96 % of control | [21] 100 % of control

CC1(C(=O)c2ccccc2)OC1c1ccccc1 (stereo not drawn)
inactive: [10] 98 % of control | [11] 104 % of control | [12] 103 % of control

ClC(Cl)(Cl)C1OCCOCCO1
inactive: [1] 93 % of control | [2] 97 % of control | [3] 107 % of control

[Cl][Pt+2][Cl].[NH-]CCN1CC1
inactive: dose: 50.0 mg/kg/injection, schedule: Q04DX003 (ip), vehicle: saline 122 % of control | dose: 100.0 mg/kg/injection, schedule: Q04DX003 (ip), vehicle: saline 122 % of control

CS(=O)(=O)Oc1ccc2ccccc2c1[N+](=O)[O-]
inactive: [19] 98 % of control | [20] 98 % of control | [21] 98 % of control

COC(=O)C1C(c2ccc(-c3ccccc3)cc2)N1C(C)C (stereo not drawn)
inactive: [13] 101 % of control | [14] 95 % of control | [15] 98 % of control

CCOP(=O)(CCN(C(C)C)C(C)C)OCC
inactive: dose: 50.0 mg/kg/injection, schedule: Q01DX009 (ip), vehicle: Klucel (hydroxypropylcellulose) (HPC) 100 % of control | [10] 100 % of control | [13] 88 % of control | [11] 93 % of control

O=C(O)c1cc(N=Nc2cccc([N+](=O)[O-])c2)ccc1O
inactive: dose: 62.5 mg/kg/injection, schedule: Q01DX001 (ip), vehicle: Klucel (hydroxypropylcellulose) (HPC) 97 % of control | dose: 125.0 mg/kg/injection, schedule: Q01DX001 (ip), vehicle: Klucel (hydroxypropylcellulose) (HPC) 92 % of control

Cc1ccc(S(=O)(=O)/N=C(\N)CCl)cc1
inactive: dose: 12.5 mg/kg/injection, schedule: Q04DX002 (ip), vehicle: saline with Tween-80 98 % of control | dose: 25.0 mg/kg/injection, schedule: Q04DX002 (ip), vehicle: saline with Tween-80 120 % of control | dose: 50.0 mg/kg/injection, schedule: Q04DX002 (ip), vehicle: saline with Tween-80 95 % of control

CCOc1ccccc1/C=C1\C=C(CC)SC1=O
inactive: [4] 91 % of control | [5] 94 % of control | [6] 91 % of control

O=c1[nH]n(-c2ccccc2)c(=O)cc1Cl
inactive: [16] 97 % of control | [17] 89 % of control | [18] 86 % of control

O=[N+]([O-])c1ccc(O)c(/C=N\NC(=S)Nc2ccc3cn[nH]c3c2)c1
inactive: dose: 50.0 mg/kg/injection, schedule: Q01DX001 (ip), vehicle: carboxymethylcellulose (CMC) 97 % of control | [19] 103 % of control | [20] 93 % of control | [21] 97 % of control
